Results published in publication PMC2674329 (The Journal of steroid biochemistry and molecular biology, 2008).
Read-outs that look alike come from different tables or passages of the source.

Legend:
Type in all cases: biochemical
[1] = biological target: T1, human placental cytosolic COMT (Homo sapiens, UniProt P21964); conditions: for Km: read-out: KM of the substrate for O-methylation
T1 sequence (P21964 1-221 isoform P21964-2): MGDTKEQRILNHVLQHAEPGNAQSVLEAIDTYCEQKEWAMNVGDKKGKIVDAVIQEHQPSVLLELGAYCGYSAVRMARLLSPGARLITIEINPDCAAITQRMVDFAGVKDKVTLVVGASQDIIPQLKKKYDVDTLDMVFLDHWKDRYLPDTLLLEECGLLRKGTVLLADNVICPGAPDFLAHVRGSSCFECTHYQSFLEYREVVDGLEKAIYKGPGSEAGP

[2] = biological target: T2, human liver cytosolic COMT (Homo sapiens, UniProt P21964)
T2 sequence (P21964 1-221 isoform P21964-2): T1 sequence (P21964 1-221 isoform P21964-2)

[3] = biological target: T3, human liver and placental cytosolic COMT (Homo sapiens, UniProt P21964)
T3 sequence (P21964 1-221 isoform P21964-2): T1 sequence (P21964 1-221 isoform P21964-2)

[4] = range over liver and placental samples (summary)

C[C@]12CC[C@@H]3c4cc(O)c(O)cc4CC[C@H]3[C@@H]1CC[C@@H]2O [2-OH-E2, 2-hydroxyestradiol, reference compound]
VMAX of the substrate for O-methylation ([1]; HP17C (no inhibitor)): 2274 pmol/mg protein/min
VMAX of the substrate for O-methylation ([1]; HP18C (no inhibitor)): 4815 pmol/mg protein/min
VMAX of the substrate for O-methylation ([1]; HP20C (no inhibitor)): 1650 pmol/mg protein/min
Km ([1]; HP17C (no inhibitor)): 1.3 µM
Km ([1]; HP18C (no inhibitor)): 1 µM
Km ([1]; HP20C (no inhibitor)): 0.7 µM

C[C@]12CC[C@@H]3c4ccc(O)c(O)c4CC[C@H]3[C@@H]1CC[C@@H]2O [4-OH-E2, 4-hydroxyestradiol, reference compound]
VMAX of the substrate for O-methylation ([2]; HL1C (no inhibitor), experiment with 1 μM chlorogenic acid): 6408 pmol/mg protein/min
VMAX of the substrate for O-methylation ([2]; HL1C (no inhibitor), experiment with 2 μM caffeic acid): 6401 pmol/mg protein/min
VMAX of the substrate for O-methylation ([2]; HL6C (no inhibitor)): 6310 pmol/mg protein/min
Km ([2]; read-out: KM of the substrate for O-methylation, HL6C (no inhibitor)): 7.1 µM
VMAX of the substrate for O-methylation ([1]; HP17C (no inhibitor)): 1827 pmol/mg protein/min
VMAX of the substrate for O-methylation ([1]; HP18C (no inhibitor)): 1918 pmol/mg protein/min
VMAX of the substrate for O-methylation ([1]; HP20C (no inhibitor)): 759 pmol/mg protein/min
Km ([1]; HP17C (no inhibitor)): 3.2 µM
Km ([1]; HP18C (no inhibitor)): 4.2 µM
Km ([1]; HP20C (no inhibitor)): 3.5 µM

O=C(O)/C=C/c1ccc(O)c(O)c1 [Caffeic acid, caffeic acid]
VMAX, 4-OH-E2 as substrate, in presence of inhibitor ([1]; HP17C + 2 μM inhibitor, no inhibitor: 1827): 531 pmol/mg protein/min
VMAX, 4-OH-E2 as substrate, in presence of inhibitor ([1]; HP17C + 0.5 inhibitor (unit of concentration not given), no inhibitor: 1827): 1572 pmol/mg protein/min
VMAX, 2-OH-E2 as substrate, in presence of inhibitor ([1]; HP17C + 0.5 inhibitor (unit of concentration not given), no inhibitor: 2274): 2078 pmol/mg protein/min

O=C(/C=C/c1ccc(O)c(O)c1)O[C@@H]1C[C@](O)(C(=O)O)C[C@@H](O)[C@H]1O [Chlorogenic acid, chlorogenic acid]
VMAX, 4-OH-E2 as substrate, in presence of inhibitor ([2]; HL1C + 1 μM inhibitor, no inhibitor: 6408): 2825 pmol/mg protein/min
VMAX, 4-OH-E2 as substrate, in presence of inhibitor ([2]; HL6C + 2 μM inhibitor, no inhibitor: 6310): 3292 pmol/mg protein/min
change of apparent KM value, O-methylation of 4-OH-E2 ([2]; inhibitor at 1 μM): slightly increased
decrease of apparent VMAX value, O-methylation of 4-OH-E2 ([2]; inhibitor at 1 μM): approximately 50%
mechanism of enzyme inhibition, O-methylation of 4-OH-E2 ([2]; inhibitor at 1 μM): primarily a noncompetitive mechanism
VMAX, 4-OH-E2 as substrate, in presence of inhibitor ([1]; HP18C + 0.25 μM inhibitor, no inhibitor: 1918): 1480 pmol/mg protein/min
VMAX, 2-OH-E2 as substrate, in presence of inhibitor ([1]; HP18C + 0.25 μM inhibitor, no inhibitor: 4815): 3960 pmol/mg protein/min
VMAX, 4-OH-E2 as substrate, in presence of inhibitor ([1]; HP18C + 0.5 μM inhibitor, no inhibitor: 1918): 1146 pmol/mg protein/min
VMAX, 2-OH-E2 as substrate, in presence of inhibitor ([1]; HP18C + 0.5 μM inhibitor, no inhibitor: 4815): 3648 pmol/mg protein/min
VMAX, 4-OH-E2 as substrate, in presence of inhibitor ([1]; HP20C + 0.5 μM inhibitor, no inhibitor: 759): 312 pmol/mg protein/min
VMAX, 2-OH-E2 as substrate, in presence of inhibitor ([1]; HP20C + 0.5 μM inhibitor, no inhibitor: 1650): 1311 pmol/mg protein/min
increase of KM value, 2-OH-E2 as a substrate ([1]; inhibitor at 0.25 μM): approximately 2 fold
increase of KM value, 4-OH-E2 as a substrate ([1]; inhibitor at 0.25 μM): approximately 1.2 fold
increase of KM value, 2-OH-E2 as a substrate ([1]; inhibitor at 0.5 μM): ~4 fold
increase of KM value, 4-OH-E2 as a substrate ([1]; inhibitor at 0.5 μM): approximately 2 fold
decrease of VMAX value, 2-OH-E2 as a substrate ([1]; inhibitor at 0.25 and 0.5 μM): approximately 20%
decrease of VMAX value, 4-OH-E2 as a substrate ([1]; inhibitor at 0.25 and 0.5 μM): approximately 50%
mechanism of enzyme inhibition, O-methylation of 2-OH-E2 and 4-OH-E2 ([1]; section on human placental cytosolic COMT (sentence prints human liver COMT)): mixed (competitive plus noncompetitive)
mechanism of inhibition, O-methylation of 2-OH-E2 and 4-OH-E2 ([3]; human liver and placental COMT): mixed (competitive plus noncompetitive)
higher inhibition potency for the O-methylation of 4-OH-E2 than for the O-methylation of 2-OH-E2 ([3]; human liver or placental cytosolic COMT): 1.5 to 7 fold
IC50 values for inhibiting the methylation of 2-OH-E2 [3, 4]: 0.8 to 1.4 µM
IC50 values for inhibiting the methylation of 4-OH-E2 [3, 4]: 0.2 to 0.8 µM
